According to ChEMBL document CHEMBL1137853, “Discovery of potent and selective beta-homophenylalanine based dipeptidyl peptidase IV inhibitors” (Bioorg Med Chem Lett, 2004):

Tests used:
Dipeptidyl peptidase 2 = Dipeptidyl peptidase 2 (Homo sapiens, UniProt Q9UHL4); experiment: Inhibitory concentration against quiescent cell proline dipeptidase
Dipeptidyl peptidase 4 = Dipeptidyl peptidase 4 (Homo sapiens, UniProt P27487); experiment: Inhibitory concentration against Dipeptidyl peptidase IV
[1] = Half life in rat at 2 mpk po; format: ADME, organism-based; conditions: in vivo, 2 mg/kg
[2] = Plasma clearance in rat at 2 mpk po; format: ADME, organism-based; conditions: 2 mg/kg, read-out: Clearance
[3] = Half life in rat at 1 mpk iv; format: ADME, organism-based; conditions: in vivo, 1 mg/kg
[4] = Bioavailability in rat (dose 2 mg/kg p.o.); format: ADME, organism-based; conditions: in vivo, po
[5] = Plasma clearance in rat at 1 mpk iv; format: ADME, organism-based; conditions: 1 mg/kg
[6] = Bioavailability in rat (dose 1 mg/kg i.v.); format: ADME, organism-based; conditions: in vivo, iv

Sequence of Dipeptidyl peptidase 4 (P27487 whole entry): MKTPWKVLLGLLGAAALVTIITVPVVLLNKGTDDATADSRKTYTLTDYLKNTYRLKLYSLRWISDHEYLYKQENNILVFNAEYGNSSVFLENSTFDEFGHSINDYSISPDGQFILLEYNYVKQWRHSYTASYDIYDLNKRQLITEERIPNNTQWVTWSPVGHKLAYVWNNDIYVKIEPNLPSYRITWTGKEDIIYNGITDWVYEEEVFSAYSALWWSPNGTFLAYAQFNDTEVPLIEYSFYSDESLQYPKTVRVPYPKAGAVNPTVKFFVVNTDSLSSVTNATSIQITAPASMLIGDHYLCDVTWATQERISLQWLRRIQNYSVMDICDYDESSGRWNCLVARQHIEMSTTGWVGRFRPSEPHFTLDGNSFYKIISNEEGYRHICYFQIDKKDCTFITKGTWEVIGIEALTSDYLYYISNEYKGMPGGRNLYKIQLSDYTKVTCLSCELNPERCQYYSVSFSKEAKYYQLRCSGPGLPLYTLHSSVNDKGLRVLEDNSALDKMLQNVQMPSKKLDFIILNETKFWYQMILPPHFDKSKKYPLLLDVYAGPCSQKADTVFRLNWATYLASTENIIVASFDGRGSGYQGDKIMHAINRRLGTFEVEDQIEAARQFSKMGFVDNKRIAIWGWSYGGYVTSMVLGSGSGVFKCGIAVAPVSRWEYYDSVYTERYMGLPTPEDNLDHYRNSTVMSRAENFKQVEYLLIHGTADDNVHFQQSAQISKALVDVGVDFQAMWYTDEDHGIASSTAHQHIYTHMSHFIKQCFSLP

Compound | IC50 (Dipeptidyl peptidase 2) | IC50 (Dipeptidyl peptidase 4) | other results
N[C@@H](CC(=O)N1CCSC1)CC1CCCCC1 |  | 33 µM | 
N[C@@H](CC(=O)N1CCSC1)Cc1ccc(F)cc1 | 67.6 µM | 3.28 µM | 
N[C@@H](CC(=O)N1CCSC1)Cc1cccnc1 |  | 44.9 µM | 
N#Cc1ccc(C[C@@H](N)CC(=O)N2CCSC2)cc1 |  | 14.9 µM | 
N[C@@H](CC(=O)N1CCSC1)Cc1ccsc1 |  | 5.7 µM | 
N[C@H](CCc1ccccc1)CC(=O)N1CCSC1 |  | 16.5 µM | 
N[C@@H](CC(=O)N1CCSC1)Cc1ccncc1 |  | 51 µM | 
N[C@@H](CC(=O)N1CCSC1)CC1CCCC1 |  | 27.5 µM | 
N[C@@H](CC(=O)N1CCSC1)Cc1ccccn1 |  | 39.6 µM | 
N[C@@H](CC(=O)N1CCSC1)c1ccccc1 |  | > 100 µM | 
N[C@@H](CC(=O)N1CCSC1)Cc1ccc(C(F)(F)F)cc1 |  | 7.69 µM | 
N[C@@H](CC(=O)N1CCSC1)Cc1ccccc1 | > 100 µM |  | 
N[C@@H](CC(=O)N1CCSC1)Cc1ccc(I)cc1 | 5.78 µM | 10.7 µM | 
N[C@@H](CC(=O)N1CCSC1)Cc1ccoc1 |  | 46.9 µM | 
N[C@@H](CC(=O)N1CCSC1)Cc1ccccc1C(F)(F)F | 82.1 µM | 2.26 µM | 
N[C@@H](CC(=O)N1CCSC1)Cc1cc(F)c(F)cc1F |  |  | half-life [1]: 66 min; CL/F [2]: 120 mL/min/kg; half-life [3]: 66 min; bioavailability [4]: 3%; clearance [5]: 120 mL/min/kg; bioavailability [6]: 3%
N[C@@H](CC(=O)N1CCSC1)Cc1cccc(C(F)(F)F)c1 | 24.6 µM | 3.61 µM | 
N[C@@H](CC(=O)N1CCSC1)Cc1ccc([N+](=O)[O-])cc1 | 24.3 µM | 1.55 µM | 

More lines, main results first:

IC50 (Dipeptidyl peptidase 2) | IC50 (Dipeptidyl peptidase 4) | Compound | other results
> 100 µM | 2.52 µM | N#Cc1ccccc1C[C@@H](N)CC(=O)N1CCSC1 | 
29.8 µM | 8.95 µM | N#Cc1cccc(C[C@@H](N)CC(=O)N2CCSC2)c1 | 
56.1 µM | 0.589 µM | N[C@@H](CC(=O)N1CCSC1)Cc1ccc(F)cc1F | 
 | 9.4 µM | N[C@@H](CC(=O)N1CCSC1)Cc1cccc(F)c1F | 
36.2 µM | 3.03 µM | N[C@@H](CC(=O)N1CCSC1)Cc1ccc(Cl)cc1 | 
92.1 µM | 0.981 µM | Cc1ccccc1C[C@@H](N)CC(=O)N1CCSC1 | 
49.7 µM | 0.931 µM | N[C@@H](CC(=O)N1CCSC1)Cc1ccccc1F | 
 | 8.48 µM | N[C@@H](CC(=O)N1CCSC1)Cc1c(F)cccc1F | 
48.5 µM | 2.03 µM | N[C@@H](CC(=O)N1CCSC1)Cc1cccc(F)c1 | 
77.6 µM | 0.27 µM | N[C@@H](CC(=O)N1CCSC1)Cc1cc(F)ccc1F | half-life [1]: 30 min; CL/F [2]: 110 mL/min/kg; half-life [3]: 30 min; bioavailability [4]: 2%; clearance [5]: 110 mL/min/kg; bioavailability [6]: 2%
33.9 µM | 1.7 µM | N[C@@H](CC(=O)N1CCSC1)Cc1ccc(F)c(F)c1 | 
 | 0.0001 µM | COc1cc(OC)cc(-c2nc(-c3ccc(Cl)cc3Cl)c(CN(C)C)c(N(C)C)n2)c1 | 
48.5 µM | 2.03 µM | N[C@@H](CC(=O)N1CCSC1)Cc1ccc(Cl)c(Cl)c1 | 
